Consider 3 compounds from article PMC8550792, “Evolution of kinase polypharmacology across HSP90 drug discovery” (Cell Chemical Biology, 2021).

One test has as its target T1, ABL2/ARG (Homo sapiens, UniProt P42684).
T1 construct: purchased Reaction Biology (HotSpot contract assay)
The test can be described thus: HotSpot in vitro kinase radiometric assay. Format: biochemical. The conditions noted are these: ABL2/ARG, 10uM, ATP 30 uM, Data 1, Data 2; for remaining activity at 10 µM: read-out: % Enzyme Activity (relative to DMSO controls).

Another test deals with T2, BLK (Homo sapiens, UniProt P51451).
T2 construct: purchased Reaction Biology (HotSpot contract assay)
The test can be described thus: HotSpot in vitro kinase radiometric assay. It counts as biochemical. Conditions: BLK, 10uM, ATP 10 uM, Data 1, Data 2; for remaining activity at 10 µM: read-out: % Enzyme Activity (relative to DMSO controls). As to the method: (§1) Accordingly, we selected five additional representative HSP90 inhibitors, at least one from each chemical class, including both synthetic inhibitors and natural products. […]
(§2) This radioisotope binding assay was designed to directly detect the true product without the use of modified substrates, coupling enzymes, or detection antibodies thus enabling to directly measure inhibition of catalytic activity. Test or control compounds were incubated with kinase, substrate, cofactors, and radioisotope-labeled ATP (32P-ɣ-ATP or 33P-ɣ-ATP). The reaction mixtures were then spotted onto filter papers, which bind the radioisotope-labeled catalytic product.

For another test, the target named is T3, LYN B (Homo sapiens, UniProt P07948).
T3 construct: purchased Reaction Biology (HotSpot contract assay)
The test can be described thus: HotSpot in vitro kinase radiometric assay. It counts as biochemical. The conditions noted are these: LYN B, 10uM, ATP 20 uM, Data 1, Data 2; for remaining activity at 10 µM: read-out: % Enzyme Activity (relative to DMSO controls). As to the method:
as §1, §2

For another test, the target named is T4, PDK4/PDKH4 (Homo sapiens, UniProt Q16654).
T4 construct: purchased Reaction Biology (HotSpot contract assay)
Kind of test: HotSpot in vitro kinase radiometric assay. Format: biochemical. Conditions: PDK4/PDKH4, 10uM, ATP 30 uM, Data 1, Data 2; for remaining activity at 10 µM: read-out: % Enzyme Activity (relative to DMSO controls). The method, then: as §1, §2

In a further test the target is T5, c-Src (Homo sapiens, UniProt P12931).
T5 construct: purchased Reaction Biology (HotSpot contract assay)
Kind of test: HotSpot in vitro kinase radiometric assay. Format: biochemical. The conditions noted are these: c-Src, 10uM, ATP 15 uM, Data 1, Data 2; for remaining activity at 10 µM: read-out: % Enzyme Activity (relative to DMSO controls). The method, then:
as §1, §2

A further test deals with T6, PEAK1 (Homo sapiens, UniProt Q9H792).
T6 construct: purchased Reaction Biology (HotSpot contract assay)
Kind of test: HotSpot in vitro kinase radiometric assay. Format: biochemical. Conditions: PEAK1, 10uM, ATP 30 uM, Data 1, Data 2; for remaining activity at 10 µM: read-out: % Enzyme Activity (relative to DMSO controls).

A further test deals with T7, FGR (Homo sapiens, UniProt P09769).
T7 construct: purchased Reaction Biology (HotSpot contract assay)
Kind of test: HotSpot in vitro kinase radiometric assay. Format: biochemical. The conditions noted are these: FGR, 10uM, ATP 50 uM, Data 1, Data 2; for remaining activity at 10 µM: read-out: % Enzyme Activity (relative to DMSO controls).

In another test the target is T8, FYN (Homo sapiens, UniProt P06241).
T8 construct: purchased Reaction Biology (HotSpot contract assay)
Kind of test: HotSpot in vitro kinase radiometric assay. It counts as biochemical. Conditions: FYN, 10uM, ATP 30 uM, Data 1, Data 2; for remaining activity at 10 µM: read-out: % Enzyme Activity (relative to DMSO controls).

A further test addresses T9, PASK (Homo sapiens, UniProt Q96RG2).
T9 construct: purchased Reaction Biology (HotSpot contract assay)
Kind of test: HotSpot in vitro kinase radiometric assay. Format: biochemical. The conditions noted are these: PASK, 10uM, ATP 50 uM, Data 1, Data 2; for remaining activity at 10 µM: read-out: % Enzyme Activity (relative to DMSO controls).
Description: (§3) Accordingly, we selected five additional representative HSP90 inhibitors, at least one from each chemical class, including both synthetic inhibitors and natural products.
(§4) Accordingly, we screened the hit compound and the two leads for kinase off-target inhibition using the 16-kinase panel and the same in vitro catalytic assay used previously.
as §2

The next test addresses T10, TRKA (Homo sapiens, UniProt P04629).
T10 construct: purchased Reaction Biology (HotSpot contract assay)
Kind of test: HotSpot in vitro kinase radiometric assay. The conditions noted are these: TRKA, 10uM, ATP 100 uM, Data 1, Data 2; for remaining activity at 10 µM: read-out: % Enzyme Activity (relative to DMSO controls). Format: biochemical.
Description: as §3, §4, §2

For the next test, the target named is T11, TRKC (Homo sapiens, UniProt Q16288).
T11 construct: purchased Reaction Biology (HotSpot contract assay)
Kind of test: HotSpot in vitro kinase radiometric assay. It counts as biochemical. The conditions noted are these: TRKC, 10uM, ATP 100 uM, Data 1, Data 2; for remaining activity at 10 µM: read-out: % Enzyme Activity (relative to DMSO controls).

A further test has as its target T12, LCK (Homo sapiens, UniProt P06239).
T12 construct: purchased Reaction Biology (HotSpot contract assay)
Kind of test: HotSpot in vitro kinase radiometric assay. Conditions: LCK, 10uM, ATP 15 uM, Data 1, Data 2; for remaining activity at 10 µM: read-out: % Enzyme Activity (relative to DMSO controls). Format: biochemical.

In a further test the target is T13, YES/YES1 (Homo sapiens, UniProt P07947).
T13 construct: purchased Reaction Biology (HotSpot contract assay)
Kind of test: HotSpot in vitro kinase radiometric assay. Format: biochemical. The conditions noted are these: YES/YES1, 10uM, ATP 50 uM, Data 1, Data 2; for remaining activity at 10 µM: read-out: % Enzyme Activity (relative to DMSO controls).

Another test has as its system 16-kinase panel. The test can be described thus: 16-kinase panel screening, in vitro radiometric assay. Format: biochemical, human. The conditions noted are these: 10 μM.
The next test has as its system HSP90AB1. The arrangement: method as in ChEMBL23 (accessed: 23/08/2018). The conditions noted are these: average of reported values; ref ChEMBL23 (accessed: 23/08/2018); cited from earlier work.
The test system of another test is TRAP1. The arrangement: method as in ChEMBL23 (accessed: 23/08/2018). Conditions: average of reported values; ref ChEMBL23 (accessed: 23/08/2018); cited from earlier work.
The next test deals with ABL1 (Homo sapiens, UniProt P00519). The test can be described thus: HotSpot in vitro kinase radiometric assay. Format: biochemical. Also noted: purchased Reaction Biology (HotSpot contract assay). The conditions noted are these: ABL1, 10uM, ATP 40 uM, Data 1, Data 2; for remaining activity at 10 µM: read-out: % Enzyme Activity (relative to DMSO controls).
The next test deals with DDR1 (Homo sapiens, UniProt Q08345). Kind of test: HotSpot in vitro kinase radiometric assay. Format: biochemical. Also noted: purchased Reaction Biology (HotSpot contract assay). Conditions: for remaining activity at 10 µM: read-out: % Enzyme Activity (relative to DMSO controls).
Another test has as its target T14, PDK2/PDHK2 (Homo sapiens, UniProt Q15119).
T14 construct: purchased Reaction Biology (HotSpot contract assay)
Kind of test: HotSpot in vitro kinase radiometric assay. It counts as biochemical. Conditions: PDK2/PDHK2, 10uM, ATP 15 uM, Data 1, Data 2. The method, then: as §1, §2

The test system of a further test is 382 unique human kinases. The test can be described thus: biochemical. Conditions: cutoff of >85% inhibition at 10 μM; luminespib and ganetespib large kinome panel, others 16-kinase panel. It counts as biochemical.
[1] abbreviates: DDR1, 10uM, ATP 100 uM, Data 1, Data 2.

SMILES strings stand for the structures. Read-outs that look alike come from different tables or passages of the source.

T3 sequence (P07948 1-491 isoform P07948-2): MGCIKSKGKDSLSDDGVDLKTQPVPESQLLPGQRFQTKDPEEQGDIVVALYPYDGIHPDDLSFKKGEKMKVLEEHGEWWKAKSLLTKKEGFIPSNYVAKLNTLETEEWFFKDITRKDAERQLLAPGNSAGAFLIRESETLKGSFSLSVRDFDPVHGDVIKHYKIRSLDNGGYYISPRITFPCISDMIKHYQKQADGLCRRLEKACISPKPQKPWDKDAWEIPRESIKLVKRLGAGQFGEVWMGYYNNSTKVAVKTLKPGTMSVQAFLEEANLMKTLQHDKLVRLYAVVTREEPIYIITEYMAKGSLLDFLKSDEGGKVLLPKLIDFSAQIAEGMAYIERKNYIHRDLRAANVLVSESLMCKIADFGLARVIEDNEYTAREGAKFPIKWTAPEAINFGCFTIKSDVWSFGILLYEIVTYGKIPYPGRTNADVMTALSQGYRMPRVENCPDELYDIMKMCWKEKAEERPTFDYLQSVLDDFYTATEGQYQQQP
T11 sequence (Q16288 32-839): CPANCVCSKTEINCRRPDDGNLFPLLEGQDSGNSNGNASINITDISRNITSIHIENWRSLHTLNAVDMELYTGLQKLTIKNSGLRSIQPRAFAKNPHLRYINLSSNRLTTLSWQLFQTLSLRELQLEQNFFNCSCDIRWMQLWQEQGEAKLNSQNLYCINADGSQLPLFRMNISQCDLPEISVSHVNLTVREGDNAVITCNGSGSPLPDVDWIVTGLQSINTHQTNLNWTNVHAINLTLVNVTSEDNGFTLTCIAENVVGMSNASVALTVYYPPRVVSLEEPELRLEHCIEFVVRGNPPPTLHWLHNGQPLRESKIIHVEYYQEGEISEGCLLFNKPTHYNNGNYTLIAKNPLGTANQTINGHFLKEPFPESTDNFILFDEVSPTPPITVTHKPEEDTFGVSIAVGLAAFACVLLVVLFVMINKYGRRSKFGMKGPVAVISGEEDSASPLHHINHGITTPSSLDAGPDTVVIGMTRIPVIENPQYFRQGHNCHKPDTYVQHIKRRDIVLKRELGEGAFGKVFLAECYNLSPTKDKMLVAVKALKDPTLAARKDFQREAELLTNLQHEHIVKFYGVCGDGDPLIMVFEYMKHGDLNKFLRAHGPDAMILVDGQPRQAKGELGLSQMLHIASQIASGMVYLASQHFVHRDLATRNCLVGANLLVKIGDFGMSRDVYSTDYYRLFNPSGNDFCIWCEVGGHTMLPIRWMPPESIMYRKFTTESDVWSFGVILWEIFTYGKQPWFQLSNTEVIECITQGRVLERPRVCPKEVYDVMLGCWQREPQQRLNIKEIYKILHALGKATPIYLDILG
T6 sequence (Q9H792 whole entry): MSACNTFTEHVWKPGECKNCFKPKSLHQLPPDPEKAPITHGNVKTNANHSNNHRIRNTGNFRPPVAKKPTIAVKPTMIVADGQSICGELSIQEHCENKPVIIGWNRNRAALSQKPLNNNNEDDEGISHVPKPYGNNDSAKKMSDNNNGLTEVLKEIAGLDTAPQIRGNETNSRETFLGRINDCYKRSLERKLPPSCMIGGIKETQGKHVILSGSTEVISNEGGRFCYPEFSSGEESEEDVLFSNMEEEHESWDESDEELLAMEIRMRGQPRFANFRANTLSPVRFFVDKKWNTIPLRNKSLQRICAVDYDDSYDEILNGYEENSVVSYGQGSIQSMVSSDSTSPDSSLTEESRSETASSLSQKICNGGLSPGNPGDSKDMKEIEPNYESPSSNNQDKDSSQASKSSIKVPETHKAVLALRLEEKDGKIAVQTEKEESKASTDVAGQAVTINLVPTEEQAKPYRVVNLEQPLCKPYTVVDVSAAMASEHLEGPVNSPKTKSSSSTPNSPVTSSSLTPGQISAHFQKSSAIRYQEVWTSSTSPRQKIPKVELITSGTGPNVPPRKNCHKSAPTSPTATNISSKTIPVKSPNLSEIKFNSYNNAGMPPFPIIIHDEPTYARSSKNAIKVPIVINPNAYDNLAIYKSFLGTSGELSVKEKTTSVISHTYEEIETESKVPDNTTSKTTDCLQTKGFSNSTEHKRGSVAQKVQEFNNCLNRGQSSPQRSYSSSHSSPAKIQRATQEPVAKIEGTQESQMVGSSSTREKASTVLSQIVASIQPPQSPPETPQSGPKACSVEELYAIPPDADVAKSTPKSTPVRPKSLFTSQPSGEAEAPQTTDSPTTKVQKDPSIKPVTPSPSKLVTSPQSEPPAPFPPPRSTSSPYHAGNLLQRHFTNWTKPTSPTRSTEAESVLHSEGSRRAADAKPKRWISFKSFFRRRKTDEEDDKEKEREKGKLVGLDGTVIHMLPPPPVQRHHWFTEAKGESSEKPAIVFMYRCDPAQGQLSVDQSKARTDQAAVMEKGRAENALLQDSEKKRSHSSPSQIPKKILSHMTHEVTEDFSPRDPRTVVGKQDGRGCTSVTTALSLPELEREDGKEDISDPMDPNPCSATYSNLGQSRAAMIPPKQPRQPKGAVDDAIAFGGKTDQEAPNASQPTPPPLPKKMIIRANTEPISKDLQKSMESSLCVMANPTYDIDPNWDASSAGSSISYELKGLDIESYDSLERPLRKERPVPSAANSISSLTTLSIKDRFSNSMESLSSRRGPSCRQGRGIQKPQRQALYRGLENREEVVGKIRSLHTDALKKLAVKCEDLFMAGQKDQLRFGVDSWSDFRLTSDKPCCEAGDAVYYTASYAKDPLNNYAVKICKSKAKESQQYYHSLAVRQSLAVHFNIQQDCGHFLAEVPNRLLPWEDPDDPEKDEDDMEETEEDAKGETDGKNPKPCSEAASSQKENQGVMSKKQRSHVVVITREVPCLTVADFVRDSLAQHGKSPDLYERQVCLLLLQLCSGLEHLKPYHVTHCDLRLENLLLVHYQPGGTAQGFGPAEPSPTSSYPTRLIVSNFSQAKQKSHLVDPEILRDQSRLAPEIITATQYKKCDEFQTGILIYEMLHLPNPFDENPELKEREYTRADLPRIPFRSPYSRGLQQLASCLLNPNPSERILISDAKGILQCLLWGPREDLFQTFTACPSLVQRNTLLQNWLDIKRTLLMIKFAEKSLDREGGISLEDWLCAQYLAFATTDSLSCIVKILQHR
T1 sequence (P42684 whole entry): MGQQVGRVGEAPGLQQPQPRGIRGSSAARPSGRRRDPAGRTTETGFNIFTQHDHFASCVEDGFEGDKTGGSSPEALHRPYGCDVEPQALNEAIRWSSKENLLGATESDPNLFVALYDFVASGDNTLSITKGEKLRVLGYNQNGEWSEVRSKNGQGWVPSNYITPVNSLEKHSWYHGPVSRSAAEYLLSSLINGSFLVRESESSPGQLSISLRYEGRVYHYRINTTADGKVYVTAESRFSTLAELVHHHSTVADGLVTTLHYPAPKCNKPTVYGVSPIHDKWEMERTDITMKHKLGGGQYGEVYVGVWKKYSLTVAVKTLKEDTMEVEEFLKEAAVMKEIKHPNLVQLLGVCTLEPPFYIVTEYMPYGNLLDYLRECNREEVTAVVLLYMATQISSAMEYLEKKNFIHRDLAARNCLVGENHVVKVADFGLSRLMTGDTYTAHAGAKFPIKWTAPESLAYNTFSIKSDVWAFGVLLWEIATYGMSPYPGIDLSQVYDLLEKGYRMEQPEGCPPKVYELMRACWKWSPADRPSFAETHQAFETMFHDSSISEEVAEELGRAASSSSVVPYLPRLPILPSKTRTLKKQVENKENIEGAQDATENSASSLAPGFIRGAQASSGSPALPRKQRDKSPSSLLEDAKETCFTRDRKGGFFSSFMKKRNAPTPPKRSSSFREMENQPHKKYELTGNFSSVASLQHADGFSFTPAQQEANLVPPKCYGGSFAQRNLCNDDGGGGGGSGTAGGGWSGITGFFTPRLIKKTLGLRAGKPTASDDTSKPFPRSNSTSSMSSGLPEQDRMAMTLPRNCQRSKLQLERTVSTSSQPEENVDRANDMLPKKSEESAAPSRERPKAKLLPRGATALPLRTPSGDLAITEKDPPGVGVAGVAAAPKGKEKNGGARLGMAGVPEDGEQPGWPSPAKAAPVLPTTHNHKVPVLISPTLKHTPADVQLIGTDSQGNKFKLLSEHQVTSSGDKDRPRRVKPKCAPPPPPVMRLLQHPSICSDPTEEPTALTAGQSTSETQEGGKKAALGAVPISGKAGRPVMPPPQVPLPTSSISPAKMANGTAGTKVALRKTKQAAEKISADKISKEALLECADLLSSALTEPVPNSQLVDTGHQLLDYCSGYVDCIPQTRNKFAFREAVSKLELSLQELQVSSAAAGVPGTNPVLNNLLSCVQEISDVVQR
T12 sequence (P06239 whole entry): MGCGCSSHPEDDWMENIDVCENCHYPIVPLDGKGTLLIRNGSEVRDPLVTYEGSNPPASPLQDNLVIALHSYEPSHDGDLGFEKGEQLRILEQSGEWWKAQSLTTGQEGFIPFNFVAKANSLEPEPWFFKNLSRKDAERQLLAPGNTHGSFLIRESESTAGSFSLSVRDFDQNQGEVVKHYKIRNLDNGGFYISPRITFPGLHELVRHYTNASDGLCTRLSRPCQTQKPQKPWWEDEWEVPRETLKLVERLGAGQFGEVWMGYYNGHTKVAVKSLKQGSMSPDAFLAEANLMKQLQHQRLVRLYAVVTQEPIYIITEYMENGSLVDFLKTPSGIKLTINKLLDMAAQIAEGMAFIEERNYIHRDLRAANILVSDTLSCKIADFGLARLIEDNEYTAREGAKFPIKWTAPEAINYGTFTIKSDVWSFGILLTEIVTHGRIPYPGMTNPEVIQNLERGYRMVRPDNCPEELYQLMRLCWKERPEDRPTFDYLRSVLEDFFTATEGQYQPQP

As to `COC1=C2C[C@@H](C)C[C@H](OC)[C@H](O)[C@@H](C)/C=C(\C)[C@H](OC(N)=O)[C@@H](OC)/C=C\C=C(/C)C(=O)NC(=CC1=O)C2=O` [Geldanamycin], the remaining activity at 10 µM on ABL2/ARG came out at 115%; on BLK, 121%; at LYN B it was 111%; at PDK4/PDKH4, 100%; at c-Src it was 110%; on PEAK1, 108%. For the same compound, the remaining activity at 10 µM on FGR came to 113%; on FYN, 121%; on PASK, 106%; on TRKA it was 104%; on TRKC it was 99.5%; on LCK, 125%. Also, the remaining activity at 10 µM is 103% at YES/YES1, 100% on ABL1 and 104% on DDR1 (setting [1]). Further, in the test on 16-kinase panel, the “activity against the 16-kinase panel” value is “inactive”. The “pActivity, HSP90AB1” value with HSP90AB1 is reported as 6.99. For the same compound, the “pActivity, TRAP1” value in the test on TRAP1 is recorded as 6.18.

As to `CC(C)c1cc(C(=O)N2Cc3ccc(CN4CCN(C)CC4)cc3C2)c(O)cc1O` [Onalespib], the “% Enzyme Activity (relative to DMSO controls)” value on ABL2/ARG is 104.31%; at BLK it was 107.96%; on LYN B it was 109.85%; at PDK2/PDHK2, 75.57%; at PDK4/PDKH4, 96.17%; on c-Src, 97.5%. The “% Enzyme Activity (relative to DMSO controls)” value stood at 102.81% on PEAK1; 101.62% on FGR; 106.38% on FYN; 105.18% at PASK; 99.91% at TRKA; 89.51% at TRKC. In addition, the “% Enzyme Activity (relative to DMSO controls)” value on LCK amounted to 100%; at YES/YES1 it was 99.53%; on ABL1 it was 103.3%; on DDR1 (setting [1]), 87.99%. Besides, the remaining activity at 10 µM on ABL2/ARG turned out to be 105%; on BLK, 108%; on LYN B, 110%; on PDK2/PDHK2 (read-out: % Enzyme Activity (relative to DMSO controls)), 79.6%; on PDK4/PDKH4 it was 96.5%; on c-Src, 98.7%. Also, the remaining activity at 10 µM came out at 104% at PEAK1; 102% at FGR; 108% on FYN; 100% on PASK; 105% on TRKA; 93% at TRKC. The remaining activity at 10 µM is 100% at LCK, 99.6% at YES/YES1, 105% at ABL1 and 106% at DDR1 (setting [1]). Also, in the test on 382 unique human kinases, the “number of off-target kinases experimentally identified, In vitro binding (KinomeSCAN)” value turned out to be 0. For the same compound, the “activity against the 16-kinase panel” value in the test on 16-kinase panel was “inactive”. Moreover, the “pActivity, HSP90AB1” value in the test on HSP90AB1 is on record as 6.99.

As for `CN[C@@H]1C[C@H]2O[C@@](C)([C@@H]1OC)n1c3ccccc3c3c4c(c5c6ccccc6n2c5c31)C(=O)NC4` [Staurosporine], the “DDR1 - % activty” value at DDR1 is given as 87.08%; on DDR1 (Stauro Conc. 1.25E-06 M), 0.78%; at DDR1 (Stauro Conc. 1.95E-08 M), 5.70%; on DDR1 (Stauro Conc. 2.00E-05 M) it was -0.41%; at DDR1 (Stauro Conc. 3.05E-10 M) it was 101.08%; on DDR1 (Stauro Conc. 4.88E-09 M), 36.56%. For the same compound, the “DDR1 - % activty” value came to 100.44% at DDR1 (Stauro Conc. 7.63E-11 M) and 1.19% at DDR1 (Stauro Conc. 7.81E-08 M). The HILLSLOPE on DDR1 (DDR1, single replicate curves) is on record as -1.76.
